Literature values as cited in US11491230B2, “Medication” (priority 2015, dated 2022).

Key:
PC-3 = PC-3 (Ruiz et al. 1999)
[1] = target: T1, androgen receptor in the prostate gland (Homo sapiens, UniProt P10275)
T1 construct: host or cells: prostate gland
T1 sequence (P10275 1-920): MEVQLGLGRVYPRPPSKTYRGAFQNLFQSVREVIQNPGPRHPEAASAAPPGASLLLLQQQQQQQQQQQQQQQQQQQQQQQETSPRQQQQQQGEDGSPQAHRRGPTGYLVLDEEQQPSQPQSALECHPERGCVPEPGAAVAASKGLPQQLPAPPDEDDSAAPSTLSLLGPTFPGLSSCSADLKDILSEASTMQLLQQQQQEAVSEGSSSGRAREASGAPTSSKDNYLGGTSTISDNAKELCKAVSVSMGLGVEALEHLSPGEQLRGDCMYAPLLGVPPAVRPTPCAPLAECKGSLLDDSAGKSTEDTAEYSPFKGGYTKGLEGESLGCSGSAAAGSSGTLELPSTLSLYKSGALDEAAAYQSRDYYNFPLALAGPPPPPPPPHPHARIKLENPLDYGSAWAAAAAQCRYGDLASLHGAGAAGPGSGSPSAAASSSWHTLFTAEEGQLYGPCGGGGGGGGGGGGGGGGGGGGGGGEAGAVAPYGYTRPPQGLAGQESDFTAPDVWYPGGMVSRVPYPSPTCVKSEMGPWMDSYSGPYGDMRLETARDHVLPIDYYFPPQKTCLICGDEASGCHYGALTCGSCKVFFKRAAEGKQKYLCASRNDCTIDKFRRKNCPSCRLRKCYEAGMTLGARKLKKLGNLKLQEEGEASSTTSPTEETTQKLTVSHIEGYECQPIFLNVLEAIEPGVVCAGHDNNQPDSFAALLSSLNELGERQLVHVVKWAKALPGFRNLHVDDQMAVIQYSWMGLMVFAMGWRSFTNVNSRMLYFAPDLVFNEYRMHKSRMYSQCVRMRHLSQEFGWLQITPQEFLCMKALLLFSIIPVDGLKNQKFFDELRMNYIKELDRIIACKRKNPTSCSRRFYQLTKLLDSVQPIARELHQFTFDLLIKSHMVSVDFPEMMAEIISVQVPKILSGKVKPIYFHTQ

[2] = not given; remark: listed apart in the source
CB1 receptor = CB1 receptor (Homo sapiens, UniProt P21554)
CB1 receptor, sequence (P21554 whole entry): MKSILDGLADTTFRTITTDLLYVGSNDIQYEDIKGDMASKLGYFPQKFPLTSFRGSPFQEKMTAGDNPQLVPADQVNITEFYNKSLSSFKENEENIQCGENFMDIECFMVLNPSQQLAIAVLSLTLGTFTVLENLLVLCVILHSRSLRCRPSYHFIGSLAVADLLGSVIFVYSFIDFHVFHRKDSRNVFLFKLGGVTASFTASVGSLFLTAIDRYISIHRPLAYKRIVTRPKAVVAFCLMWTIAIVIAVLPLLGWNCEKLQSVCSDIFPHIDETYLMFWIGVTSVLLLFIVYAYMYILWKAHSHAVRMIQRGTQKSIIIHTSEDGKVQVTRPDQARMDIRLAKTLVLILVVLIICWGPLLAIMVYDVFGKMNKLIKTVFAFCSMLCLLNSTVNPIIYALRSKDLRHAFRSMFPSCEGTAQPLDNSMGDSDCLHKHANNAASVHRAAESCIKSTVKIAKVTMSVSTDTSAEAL

[3] = tested on: nontumorigenic mammary cells
[4] = tested on: estrogen receptor-positive and estrogen receptor-negative breast cancer cell lines; settings: inducing apoptosis in a concentration-dependent manner

What does the source list for vitamin E?
reduction in breast cancer incidence (pre-menopausal women with a family history of breast cancer, highest quantity of vitamin E consumed): 43%; breast cancer risk reduction (women without a family history of breast cancer): 16%

For `CCCCCc1cc(O)c2c(c1)OC(C)(C)[C@@H]1CCC(C)=C[C@@H]21` [THC, Tetrahydrocannabinol], which apoptosis (PC-3) is on record?
Its apoptosis is “causes apoptosis”.

And the “specific binding of dihydroxytestosterone to the androgen receptor” value [1]?
The value was “inhibits specific binding”.

And the pain sensitivity ([2]; cold-pressor test after administration, dronabinol oral capsules 10 mg or 20 mg)?
Its pain sensitivity is “decreased pain sensitivity”.

What about the duration of effect ([2]; dronabinol versus smoked marijuana) of the same compound?
The duration of effect was “lasted longer than smoked marijuana”.

And the “time until pain reduction effects were felt after administration” value ([2]; on the average)?
The value was 180 min.

For `CCCc1cc(O)c2c(c1)OC(C)(C)[C@@H]1CCC(C)=C[C@@H]21` [THCV, Tetrahydrocannabivarin], which “activity at CB1 receptor” value (CB1 receptor) is on record?
Its value is “CB1 receptor antagonist”.

With `C=C(C)[C@@H]1CCC(C)=C[C@H]1c1c(O)cc(CCCCC)cc1O` [CBD, Cannabidiol] as the compound, how does the “effect on nontumorigenic mammary cells” value [3] read?
The value was “little effect”.

And the “survival of breast cancer cell lines” value [4]?
The value was “inhibited the survival”.

And the “affinity to cannabinoid receptors” value (cannabinoid receptors)?
Its value is “low affinity”.
